Patent US8466162B2, “5-alkynyl-pyridines” (Boehringer Ingelheim International GmbH, priority 2011, dated 2013)

What was measured:
PI3Kalpha = biological target: T1, PI3Kalpha (Homo sapiens, UniProt P42336); assay: Inhibition of PI3Kalpha-induced PIP-2 phosphorylation (filter-binding assay, 33P-ATP); assay type: biochemical; settings: PI3 Kinase alpha (p85alpha/His-p110alpha), 1 μM ATP; read-out: IC50 PI3Kα
T1 construct: His (N); made in house; host or cells: SF9 insect cells (baculovirus co-infection)
T1 sequence (P27986 whole entry): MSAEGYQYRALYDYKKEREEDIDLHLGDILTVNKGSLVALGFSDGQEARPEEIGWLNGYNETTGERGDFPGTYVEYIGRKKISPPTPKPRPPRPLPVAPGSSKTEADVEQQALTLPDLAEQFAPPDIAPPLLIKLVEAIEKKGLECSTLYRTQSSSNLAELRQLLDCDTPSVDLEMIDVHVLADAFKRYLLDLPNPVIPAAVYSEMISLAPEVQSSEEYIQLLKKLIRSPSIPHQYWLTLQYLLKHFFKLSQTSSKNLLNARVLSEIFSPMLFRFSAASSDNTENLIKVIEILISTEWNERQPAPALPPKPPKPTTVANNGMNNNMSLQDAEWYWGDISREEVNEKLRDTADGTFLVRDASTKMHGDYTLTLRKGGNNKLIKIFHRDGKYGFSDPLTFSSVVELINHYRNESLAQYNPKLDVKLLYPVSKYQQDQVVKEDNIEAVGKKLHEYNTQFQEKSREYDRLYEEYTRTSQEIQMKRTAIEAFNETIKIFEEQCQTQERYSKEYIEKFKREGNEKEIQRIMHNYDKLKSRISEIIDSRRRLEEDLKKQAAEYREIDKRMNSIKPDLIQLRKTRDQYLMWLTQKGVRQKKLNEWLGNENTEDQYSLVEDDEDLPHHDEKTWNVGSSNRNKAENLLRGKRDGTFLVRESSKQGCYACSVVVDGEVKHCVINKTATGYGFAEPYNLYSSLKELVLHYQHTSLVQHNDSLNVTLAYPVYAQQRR
T1 sequence (P42336 whole entry): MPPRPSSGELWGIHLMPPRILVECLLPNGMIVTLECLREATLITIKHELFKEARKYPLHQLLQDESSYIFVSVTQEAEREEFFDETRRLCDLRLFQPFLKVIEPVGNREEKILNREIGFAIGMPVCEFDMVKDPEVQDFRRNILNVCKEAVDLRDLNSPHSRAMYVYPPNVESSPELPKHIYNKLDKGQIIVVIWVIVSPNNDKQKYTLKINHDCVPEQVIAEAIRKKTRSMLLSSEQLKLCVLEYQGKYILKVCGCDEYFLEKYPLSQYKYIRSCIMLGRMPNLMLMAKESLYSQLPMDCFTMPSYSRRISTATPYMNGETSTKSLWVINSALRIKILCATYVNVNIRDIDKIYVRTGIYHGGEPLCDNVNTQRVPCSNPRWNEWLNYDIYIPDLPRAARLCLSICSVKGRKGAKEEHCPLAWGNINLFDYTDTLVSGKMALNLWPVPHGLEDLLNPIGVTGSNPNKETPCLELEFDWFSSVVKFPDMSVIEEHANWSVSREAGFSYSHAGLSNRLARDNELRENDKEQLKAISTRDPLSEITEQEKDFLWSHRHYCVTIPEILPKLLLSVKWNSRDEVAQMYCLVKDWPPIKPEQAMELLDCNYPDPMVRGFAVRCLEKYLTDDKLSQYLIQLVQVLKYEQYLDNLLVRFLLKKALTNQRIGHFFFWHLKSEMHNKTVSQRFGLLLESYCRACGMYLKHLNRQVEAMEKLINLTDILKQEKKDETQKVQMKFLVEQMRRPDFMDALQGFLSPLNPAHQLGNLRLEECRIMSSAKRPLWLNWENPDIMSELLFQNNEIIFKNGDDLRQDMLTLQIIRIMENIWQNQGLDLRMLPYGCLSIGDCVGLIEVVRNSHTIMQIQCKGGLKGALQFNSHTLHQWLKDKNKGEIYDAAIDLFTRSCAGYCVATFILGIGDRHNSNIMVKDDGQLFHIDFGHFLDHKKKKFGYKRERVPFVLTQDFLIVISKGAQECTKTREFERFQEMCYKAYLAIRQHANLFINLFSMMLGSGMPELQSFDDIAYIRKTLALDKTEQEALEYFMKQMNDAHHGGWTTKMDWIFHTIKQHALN
Experimental: Biological Methods Inhibition of PI3Kalpha-Induced PIP-2 Phosphorylation
See also J. A. Engelman, Nature Reviews Cancer, 2009, 9, 550-562; A. Carnero, Expert Opin. Investig. Drugs, 2009, 18, 1265-1277 and P. Liu et al., Nature Reviews Drug Discovery, 2009, 8, 627-64.
Method Type: Filter-Binding-Assay
Aliquoted in desired amounts and stored at −80° C. […] Assay Procedure
The substrate-containing lipid vesicles are dissolved to a concentration of 0.637 mg lipid blend/ml assay buffer (with BSA, freshly added) in 50 ml Falcon ->keep on ice, followed by ultrasonication (pulse of 15 sec followed by a pause of 10 sec, 4×). Compounds are serially diluted in assay buffer+6% DMSO and 10 μl of each dilution is added per well of a 96-well plate (compounds are tested in duplicates) and mixed with 30 μl of the lipid vesicles containing PDGFR-Peptide (0.5 μM final) and PI3K alpha (25 ng/well final). The mixture is then incubated for 20 minutes at room temperature.
Subsequently, 20 μl of assay buffer containing 3 μM cold ATP and 0.5 μCi/20 μl 33P-ATP are added. The plates are then incubated at room temperature for 120 minutes (shaking with 300 rpm).
The reaction mix is transferred onto filter plates using “filtermate harvester” from Packard: filter plates are rinsed with PBS, then the reaction mix is filtered onto the filter plate, washed 5 times with PBS and are allowed to dry for 30-60 minutes at 50° C. The plate bottom is sealed with Perkin Elmer white adhesive foil and 25 μl/well Microscint0 are added, the top is covered with transparent adhesive foil and the plate is measured with Wallac Trilux 1450 Microbeta Counter.
As positive control serve wells containing vehicle controls (1% DMSO in assay buffer), showing non-inhibited kinase activity (high values). Wells containing assay buffer instead of enzyme can serve as control for background activity (low values).
Calculate IC50 values using the Smiley program (based on GrapPad Prism)

H460 cells = assay: alamarBlue H460 cell assay (antiproliferative/cytotoxicity); assay type: cell-based; settings: NCI-H460; H460 human lung carcinoma cells
Description: (§1) The H460, MB453, U87, MCF7 and BT474 alamarBlue cell assays provide EC50 values indicative of the antiproliferative or cytotoxic effects of the compounds to respectively the H460 (human non small cell line cancer), MB-453 (breast cancer cell line), U87 (glioblastoma cell line), MCF7 (breast cancer cell line) and BT474 (breast cancer cell line). As known in the field, antiproliferative or cytotoxic effect against this cell lines would be expected to be indicative of activity in treating lung, breast and brain cancers. See R. Marone R et al. Biochim. Biophys. Acta. 2008 January; 1784(1):159-85. S. Yaguchi et al., J. Natl. Cancer Inst. 2006 Apr. 19; 98(8):545-56.
(§2) Method Type: Antiproliferative/Cytotoxicity
(§3) alamarBlue® is designed to provide a rapid and sensitive measure of cell proliferation and cytotoxicity in various human and animal cell lines. The assay is based on the reduction of alamarBlue in the reducing environment of living (metabolically active) cells. In the presence of added cytotoxic or antiproliferative compounds, the innate metabolic activity ceases.
(§4) AlamarBlue is soluble and stable in culture medium. Measurements are made fluorometrically by exciting at 530-560 nm and measuring emission at 590 nm. In reporting percent alamarBlue reduction by monitoring fluorescence, data are expressed as fluorescence emission intensity units as a function of time of incubation.
(§5) 3. Equipment • 96-well plates, flat bottom (Falcon, Cat. No.: 353072) • 96-well plates, U-shaped (Costar, Cat. No.: 3799) • CO2-Incubator • Microplate Reader, Spectramax Plus, Molecular Devices 4. Typical Procedure • Day 0: Seed 3000 BT-474 cells (IMDM/5% FCS, 1% NEAA, 1% Sodiumpyruvat) in 150 μl medium into a 96-well plate, flat bottom (include mediumblank). Incubate plates at 37° C. in a CO2 incubator overnight. • Day 1: Dilute compounds to a concentration 40 μM ->1:3 in medium, 10 dilution steps, in 96-well plates. • Add 50 μl per well of each dilution (total volume per well 200 μl; final conc. of cpds: 10 μM ->1:3). If required, test further dilutions. • All concentrations are tested in duplicates. • Controls: Cells w/o cpd. (+50 μl medium/DMSO). • Cells are incubated with compounds for 5-6 days. • Day 6 or 7: Add 25 μl of alamarBlue solution to each well and incubate for 8 hours at 37° C. Measure fluorescence by exciting at 530-560 nm and measuring emission at 590 nm 5. Evaluation • Subtract average value for medium blank from sample readings • Calculate EC50 using GraphPad Prism (Fifty)

MCF7 cells = assay: alamarBlue MCF7 cell assay (antiproliferative/cytotoxicity); assay type: cell-based; settings: MCF7 human breast cancer cell line
Description: as §1, §2, §3, §4, §5

BT474 cells = assay: alamarBlue BT474 cell assay (antiproliferative/cytotoxicity); assay type: cell-based; settings: BT-474 human breast cancer cell line, 5-6 days incubation
Description: as §1, §2, §3, §4, §5

MB453 cells = assay: alamarBlue MB453 cell assay (antiproliferative/cytotoxicity); assay type: cell-based; settings: Homo sapiens; MDA MB 453 breast cancer cell line
Description: as §1, §2, §3, §4, §5

U87 cells = assay: alamarBlue U87 cell assay (antiproliferative/cytotoxicity); assay type: cell-based; settings: U-87MG human glioblastoma cells
Description: as §1, §2, §3, §4, §5

| IC50 (PI3Kalpha) [nM] | SMILES | EC50 (H460 cells) [nM] | EC50 (MCF7 cells) [nM] | EC50 (BT474 cells) [nM] | EC50 (MB453 cells) [nM] | EC50 (U87 cells) [nM] |
| --- | --- | --- | --- | --- | --- | --- |
| 2 | COc1ncc(C#Cc2c(C)nc(N)nc2-c2ccnc(C)c2)cc1NS(C)(=O)=O [Example 21, N-{5-[2-Amino-4-methyl-6-(2-methyl-pyridin-4-yl)-pyrimidin-5-ylethynyl]-2-methoxy-pyridin-3-yl}-methanesulfonamide] | 87 | 22 | 295 |  |  |
| 0.36 | COc1ncc(C#Cc2c(C)nc(N)nc2-c2ccnc(C)c2)cc1NS(=O)(=O)c1ccc(F)cc1F [Example 22, N-{5-[2-Amino-4-methyl-6-(2-methyl-pyridin-4-yl)-pyrimidin-5-ylethynyl]-2-methoxy-pyridin-3-yl}-2,4-difluoro-benzenesulfonamide] | 13 | 3 | 29 |  |  |
| 3 | CNC(=O)c1ccc(-c2nc(N)nc(C)c2C#Cc2cnc(C)c(NS(C)(=O)=O)c2)cc1Cl [Example 25, 4-[2-Amino-5-(5-methanesulfonylamino-6-methyl-pyridin-3-ylethynyl)-6-methyl-pyrimidin-4-yl]-2-chloro-N-methyl-benzamide] | 376 | 122 | 231 |  |  |
| 0.83 | CNC(=O)c1ccc(-c2nc(N)nc(C)c2C#Cc2cnc(Cl)c(NS(C)(=O)=O)c2)cc1Cl [Example 26, 4-[2-Amino-5-(6-chloro-5-methanesulfonylamino-pyridin-3-ylethynyl)-6-methyl-pyrimidin-4-yl]-2-chloro-N-methyl-benzamide] | 151 | 17 | 53 |  |  |
| 0.92 | CCc1ncnc(-c2cccc(C#N)c2)c1C#Cc1cnc(C)c(NS(=O)(=O)c2ccc(F)cc2F)c1 [Example 29, N-{5-[4-(3-Cyano-phenyl)-6-ethyl-pyrimidin-5-ylethynyl]-2-methyl-pyridin-3-yl}-2,4-difluoro-benzenesulfonamide] | 255 | 83 | 282 | 258 |  |
| 2 | CCc1ncnc(-c2cccc(CN(C)C)c2)c1C#Cc1cnc(C)c(NS(=O)(=O)c2ccc(F)cc2F)c1 [Example 30, N-{5-[4-(3-Dimethylaminomethyl-phenyl)-6-ethyl-pyrimidin-5-ylethynyl]-2-methyl-pyridin-3-yl}-2,4-difluoro-benzenesulfonamide] | 347 | 77 | 108 | 188 |  |
| 0.9 | CCc1nc(N)nc(-c2cccc(C#N)c2)c1C#Cc1cnc(C)c(NS(=O)(=O)c2ccc(F)cc2F)c1 [Example 34, N-{5-[2-Amino-4-(3-cyano-phenyl)-6-ethyl-pyrimidin-5-ylethynyl]-2-methyl-pyridin-3-yl}-2,4-difluoro-benzenesulfonamide] | 147 | 17 | 107 | 174 |  |
| 3 | CCc1ncnc(-c2ccc(C(=O)N3CCN(C)CC3)c(F)c2)c1C#Cc1cnc(C)c(NS(C)(=O)=O)c1 [Example 81, N-(5-{4-Ethyl-6-[3-fluoro-4-(4-methyl-piperazine-1-carbonyl)-phenyl]-pyrimidin-5-ylethynyl}-2-methyl-pyridin-3-yl)-methanesulfonamide] | 2350 | 301 | 477 |  |  |
| 1 | CCc1nc(N)nc(-c2ccc(C(=O)N3CCN(C)CC3)c(F)c2)c1C#Cc1cnc(C)c(NS(C)(=O)=O)c1 [Example 82, N-(5-{2-Amino-4-ethyl-6-[3-fluoro-4-(4-methyl-piperazine-1-carbonyl)-phenyl]-pyrimidin-5-ylethynyl}-2-methyl-pyridin-3-yl)-methanesulfonamide] | 2270 | 194 | 511 |  |  |
| 0.71 | CCc1ncnc(-c2ccnc(C)c2)c1C#Cc1cnc(C)c(NS(=O)(=O)c2ccccc2OC)c1 [Example 96, N-{5-[4-Ethyl-6-(2-methyl-pyridin-4-yl)-pyrimidin-5-ylethynyl]-2-methyl-pyridin-3-yl}-2-methoxy-benzenesulfonamide] | 93 |  | 84 | 102 | 225 |
| 2 | CCc1ncnc(-c2ccnc(C)c2)c1C#Cc1cnc(C)c(NS(=O)(=O)c2ccc(OC)cc2OC)c1 [Example 98, N-{5-[4-Ethyl-6-(2-methyl-pyridin-4-yl)-pyrimidin-5-ylethynyl]-2-methyl-pyridin-3-yl}-2,4-dimethoxy-benzenesulfonamide] | 288 |  | 225 | 437 | 559 |
| 11 | CCc1ncnc(-c2ccnc(C)c2)c1C#Cc1cnc(C)c(NS(=O)(=O)c2ccc(C(C)(C)C)cc2)c1 [Example 99, 4-tert-Butyl-N-{5-[4-ethyl-6-(2-methyl-pyridin-4-yl)-pyrimidin-5-ylethynyl]-2-methyl-pyridin-3-yl}-benzenesulfonamide] | 2490 |  | 4970 | 2930 | 2420 |
| 5 | CCc1ccc(S(=O)(=O)Nc2cc(C#Cc3c(CC)ncnc3-c3ccnc(C)c3)cnc2C)cc1 [Example 100, 4-Ethyl-N-{5-[4-ethyl-6-(2-methyl-pyridin-4-yl)-pyrimidin-5-ylethynyl]-2-methyl-pyridin-3-yl}-benzenesulfonamide] | 558 |  | 733 | 746 | 819 |
| 0.65 | CCc1ncnc(-c2ccnc(C)c2)c1C#Cc1cnc(C)c(NS(=O)(=O)c2cc(Cl)ccc2OC)c1 [Example 101, 5-Chloro-N-{5-[4-ethyl-6-(2-methyl-pyridin-4-yl)-pyrimidin-5-ylethynyl]-2-methyl-pyridin-3-yl}-2-methoxy-benzenesulfonamide] | 82 |  | 102 | 89 | 259 |
| 1 | CCc1ncnc(-c2ccnc(C)c2)c1C#Cc1cnc(C)c(NS(=O)(=O)c2cc(C)ccc2OC)c1 [Example 102, N-{5-[4-Ethyl-6-(2-methyl-pyridin-4-yl)-pyrimidin-5-ylethynyl]-2-methyl-pyridin-3-yl}-2-methoxy-5-methyl-benzenesulfonamide] | 104 |  | 149 | 146 | 319 |
| 0.32 | CCc1ncnc(-c2ccnc(C)c2)c1C#Cc1cnc(C)c(NS(=O)(=O)c2c(F)cccc2F)c1 [Example 103, N-{5-[4-Ethyl-6-(2-methyl-pyridin-4-yl)-pyrimidin-5-ylethynyl]-2-methyl-pyridin-3-yl}-2,6-difluoro-benzenesulfonamide] | 185 |  | 53 | 59 | 161 |
